Columns and labels:
r(AU)12 = test: SPR binding kinetics to r(AU)12
Procedure: (§1) The binding of 2H-K4NMe to various RNAs including r(CUG)12, r(CAG)12, r(AU)12 and r(GC)δ was studied by surface plasmon resonance (SPR) spectrometry. […] In summary, 2H-K4NMe is selective for r(CUG)12 by ˜30-100-fold over the other RNAs studied (Table 2). In general, it has a faster association rate (kon) and a slower dissociation rate (koff) when binding to r(CUG)12 compared to the other RNAs.
(§2) On rates, off rates and Kobs values were measured using a ForteBio OctetRed spectrophotometer and Streptavidin SA dip-and-read biosensors (ForteBio). Sensors were pre-equilibrated in 1X Kinetics Buffer (ForteBio) prior to beginning measurements. 5′-Biotinylated r(CUG)12 was folded by heating in 1X Kinetics Buffer at 60° C. for 5 min followed by slow cooling to room temperature on the bench top. Measurements were completed by incubating sensors sequentially in 200 μL of: 1X Kinetics Buffer, 540 nM 5′-biotinylated RNA, 1X Kinetics Buffer, compound of interest or MBNL1 (varying concentrations; seven 1:2 dilutions in 1X Kinetics Buffer), and finally 1X Kinetics Buffer. Data were fit using ForteBio's Data Analysis 7.0 software. MBNL1 and II (monomer) data were fit using a 1:1 model. This model fits one analyte in solution binding to one binding site on the surface. 2H-K4NMe and 2H-4 data were fit using a 2:1 heterogeneous ligand model. This model fits the binding of one analyte in solution to two different binding sites on the surface. Kinetic parameters are calculated for both interactions.

r(GC)8 = test: SPR binding kinetics to r(GC)8
Procedure: as §1, §2

[1] = system: Clcn1 and Serca1 (Atp2a1) alternative splicing in HSA^LR mice; test: Alternative pre-mRNA splicing in DM1 mouse model (HSA^LR), RT-PCR of vastus muscle; assay type: in vivo
Description: 2H-K4NMe was selected for animal studies based on overall performance in cell-based assays, increased proteolytic stability as compared to 2H-KNH and decreased structural complexity compared to 2H-K4NPr. A mouse model of DM1 has been reported in which 250 rCUG repeats are expressed using an actin promoter (human skeletal actin long repeat, HSA^LR).^24 The presence of these repeats results in dysregulation of alternative splicing in the muscle-specific chloride ion channel (Clcn1) and the sarcoplasmic/endoplasmic reticulum calcium ATPase 1 (Serca1/Atp2a1) pre-mRNAs. Clcn1 exon 7a is excluded ˜100% in mRNA from normal adult mice; DM1 mice have an exclusion rate of ˜50%. After DM1 mice were treated for 7 days with 100 mg/kg/d of 2H-K4NMe, the exclusion rate of exon 7A was restored to 71% (p-value=0.007) (FIGS. 7 and 11). Mis-splicing of Serca1 exon 21 was also partially rescued. The exon 22 inclusion rate is ˜100% in normal adult mice and ˜11.8% in DM1 mice.
All experimental procedures, mouse handling, and husbandry were completed in accordance with the Association for Assessment and Accreditation of Laboratory Animal Care. A mouse model for DM1, HSA^LR in line 20b, was used.^24 HSA^LR mice express human skeletal actin RNA with 250 CUG repeats in the 3′ UTR. Age- and gender-matched HSA^LR mice were injected intraperitoncally with 100 mg/kg 2H-K4NMe in water for treatment or 0.9% NaCl for control once per day for 7 days. Mice were sacrificed one day after the last injection, and the vastus muscle was obtained. RNA was extracted from the vastus tissue, and cDNA was synthesized as previously described.^65
PCR amplification was carried out for 26-30 cycles with the following primer pairs: Clcn1 forward 5′-[…] (SEQ ID NO:5) and reverse 5′-(6FAM)[…] (SEQ ID NO:6); Secral forward 5′-(6FAM)[…] (SEQ ID NO:7) and reverse 5′- […] (SEQ ID NO:8). The PCR products were separated by agarose gel electrophoresis. The gel was scanned with a laser fluorimager (Typhoon, GE Healthcare), and the products were quantified using ImageQuant.

[2] = r(AU)12, two component binding isotherm
[3] = r(GC)8, two component binding isotherm

Selectivity for r(CUG)12 (r(AU)12; over r(AU)12): 30
kon (1) (r(AU)12; r(AU)12): 41300 M⁻¹ s⁻¹
kon (2) (r(AU)12; r(AU)12): 19800 M⁻¹ s⁻¹
Kd (r(AU)12; r(AU)12, read-out: Kobs (1)): 400 nM
koff (1) (r(AU)12; [2]): 0.0165 s⁻¹
koff (2) (r(AU)12; [2]): 0.359 s⁻¹
Selectivity for r(CUG)12 (r(GC)8; over r(GC)8): 107
kon (1) (r(GC)8; r(GC)8): 58600 M⁻¹ s⁻¹
kon (2) (r(GC)8; r(GC)8): 24800 M⁻¹ s⁻¹
Kd (r(GC)8; r(GC)8, read-out: Kobs (1)): 1400 nM
koff (1) (r(GC)8; [3]): 0.0822 s⁻¹
koff (2) (r(GC)8; [3]): 0.105 s⁻¹
SMILES: C[C@@H](C(=O)N(C)[C@@H](C)C(=O)N(C)[C@@H](C)C(=O)N(C)[C@@H](C)C(=O)N[C@@H](CCCCNC(=O)CCCOc1cccc(-c2nc3cc(-c4nc5cc(N6CCN(C)CC6)ccc5[nH]4)ccc3[nH]2)c1)C(N)=O)N(C)C(=O)CCCOc1cccc(-c2nc3ccc(-c4nc5cc(N6CCN(C)CC6)ccc5[nH]4)cc3[nH]2)c1 [Compound 2H-K4NMe]
effect on alternative splicing of Itgb1 and CapZB mRNAs (not regulated by MBNL1) ([1]; 100 mg/kg/d for 7 days): did not affect
Serca1 exon 22 inclusion rate ([1]; 100 mg/kg/d for 7 days, DM1 mice ˜11.8%, normal ˜100%): 21.5%
Clcn1 exon 7a exclusion rate ([1]; 100 mg/kg/d intraperitoneally for 7 days, DM1 mice ˜50%, normal ˜100%): 71%
